According to ChEMBL document CHEMBL3351321, “Target evaluation of deoxyhypusine synthase from Theileria parva the neglected animal parasite and its relationship to Plasmodium” (Bioorg Med Chem, 2014):

What was measured:
[1] = system: Theileria parva; assay: Inhibition of Theileria parva deoxyhypusine synthase expressed in Escherichia coli Rosetta cells assessed as reduction in deoxyhypusine level at 2 uM
[2] = system: Plasmodium falciparum; assay: Antiplasmodial activity against Plasmodium falciparum 3D7 assessed as inhibition of parasite growth at 5 uM; type: functional

Row | SMILES | inhibition [1] [%] | inhibition at 5 µM [2] [%]
1 | CNCCCNc1ccnc2cc(Cl)ccc12 | 13 | 98
2 | O=[N+]([O-])c1ccc(C=NNc2nc3ccccc3[nH]2)cc1 | 56 | 99
3 | Fc1ccc2[nH]c3c(NCCCN4CCOCC4)ncnc3c2c1 | 23 | 98
